In ChEMBL document CHEMBL1275355, “Molecular modeling study on potent and selective adenosine A(3) receptor agonists” (Bioorg Med Chem, 2010):
pKi: −log10 of the molar value.

Assays:
[1] = biological target: Adenosine receptors; A1 & A3 (Homo sapiens) (UniProt P30542+P0DMS8); experiment: Selectivity ratio of Ki for human adenosine A1 receptor to Ki for human adenosine A3 receptor
Homo sapiens = species on record: Homo sapiens; experiment: Selectivity ratio of Ki for human adenosine A2A receptor to Ki for human adenosine A3 receptor
Adenosine receptor A1 = biological target: T1, Adenosine receptor A1 (Homo sapiens, UniProt P30542); experiment: Binding affinity to human adenosine A1 receptor
T1 sequence (P30542 whole entry): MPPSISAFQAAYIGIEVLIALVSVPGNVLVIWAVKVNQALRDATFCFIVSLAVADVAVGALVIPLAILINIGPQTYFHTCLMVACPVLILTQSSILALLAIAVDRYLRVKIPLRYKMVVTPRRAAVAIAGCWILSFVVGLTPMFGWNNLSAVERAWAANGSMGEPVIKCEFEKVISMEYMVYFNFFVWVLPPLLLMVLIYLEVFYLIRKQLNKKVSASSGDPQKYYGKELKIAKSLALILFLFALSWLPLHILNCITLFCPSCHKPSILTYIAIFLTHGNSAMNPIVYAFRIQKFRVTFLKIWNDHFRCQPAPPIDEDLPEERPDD

Adenosine receptor A2a = Adenosine receptor A2a (Homo sapiens, UniProt P29274); experiment: Binding affinity to human adenosine A2A receptor
Adenosine receptor A3 = biological target: T2, Adenosine receptor A3 (Homo sapiens, UniProt P0DMS8); experiment: Binding affinity to human adenosine A3 receptor; settings: for Ki: read-out: pKi (converted)
T2 sequence (P0DMS8 whole entry): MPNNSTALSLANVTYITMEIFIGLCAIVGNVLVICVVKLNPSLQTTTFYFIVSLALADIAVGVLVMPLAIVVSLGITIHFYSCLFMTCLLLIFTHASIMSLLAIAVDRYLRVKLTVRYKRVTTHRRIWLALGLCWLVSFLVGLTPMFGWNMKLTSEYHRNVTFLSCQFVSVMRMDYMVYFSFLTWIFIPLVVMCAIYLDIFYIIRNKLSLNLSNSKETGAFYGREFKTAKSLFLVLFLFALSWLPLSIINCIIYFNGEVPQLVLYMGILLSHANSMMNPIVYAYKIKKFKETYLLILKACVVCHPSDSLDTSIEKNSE

Sequence of Adenosine receptor A2a (P29274 whole entry): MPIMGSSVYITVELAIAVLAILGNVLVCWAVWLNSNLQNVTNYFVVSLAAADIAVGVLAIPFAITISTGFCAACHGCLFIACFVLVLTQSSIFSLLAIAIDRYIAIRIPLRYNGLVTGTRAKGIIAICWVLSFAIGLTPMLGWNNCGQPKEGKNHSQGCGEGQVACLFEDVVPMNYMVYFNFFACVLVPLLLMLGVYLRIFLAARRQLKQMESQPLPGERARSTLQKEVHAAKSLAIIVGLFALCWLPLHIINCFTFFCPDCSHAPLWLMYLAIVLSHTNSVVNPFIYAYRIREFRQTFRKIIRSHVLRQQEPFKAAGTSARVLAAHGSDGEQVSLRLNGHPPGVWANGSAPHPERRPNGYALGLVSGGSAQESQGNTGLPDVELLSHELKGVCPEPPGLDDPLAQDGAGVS

Ratio Ki [1]	Ratio Ki (Homo sapiens)	pKi (Adenosine receptor A1)	pKi (Adenosine receptor A2a)	pKi (Adenosine receptor A3; read-out: Ki)	Ki (Adenosine receptor A3)	Structure (SMILES)
12400	29500	–	–	–	–	CNC(=O)[C@H]1O[C@@H](n2cnc3c(NC)nc(C#Cc4ccc(F)cc4)nc32)[C@H](O)[C@@H]1O
21800	60800	–	–	–	–	CNC(=O)[C@H]1O[C@@H](n2cnc3c(NC)nc(C#Cc4ccccn4)nc32)[C@H](O)[C@@H]1O
85	115	–	–	–	–	CNC(=O)[C@H]1O[C@@H](n2cnc3c(NC)nc(C#Cc4ccccc4)nc32)[C@H](O)[C@@H]1O
–	–	5.41	5.75	8.14	–	CNC(=O)[C@H]1O[C@@H](n2cnc3c(N)nc(C#Cc4ccccc4)nc32)[C@H](O)[C@@H]1O
–	–	–	–	–	3.98 nM	CONc1nc(C#Cc2ccccc2)nc2c1ncn2[C@@H]1O[C@H](CO)[C@@H](O)[C@H]1O
30900	21300	–	–	–	0.331 nM	CNC(=O)[C@H]1O[C@@H](n2cnc3c(NC)nc(C#Cc4ccc(C(C)=O)cc4)nc32)[C@H](O)[C@@H]1O
